This is an account of results in patent US5470737A, “Stably-transformed cells expressing human thiopurine methyltransferase” (priority 1994, dated 1995).

Entries after “also recorded” stand apart in the source; their conditions may differ. Like-named read-outs stand apart in the source and are kept apart here.

For data set [1], the target named is T1, TPMT, human kidney 100,000×g supernatant (Homo sapiens, UniProt P51580).
T1 construct: renal tissue was homogenized in 5 mM potassium phosphate buffer, pH 7.5, with a Polytron homogenizer, and a 100,000×g supernatant was prepared; from tissue; host or cells: human kidney (renal tissue)
T1 sequence (P51580 1-245): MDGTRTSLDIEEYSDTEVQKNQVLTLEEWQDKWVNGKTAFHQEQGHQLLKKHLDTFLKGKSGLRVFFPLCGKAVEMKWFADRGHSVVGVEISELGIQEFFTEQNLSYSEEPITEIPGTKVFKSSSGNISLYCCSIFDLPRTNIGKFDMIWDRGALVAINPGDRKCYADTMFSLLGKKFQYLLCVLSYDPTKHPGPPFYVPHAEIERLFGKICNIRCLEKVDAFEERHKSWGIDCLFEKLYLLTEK
The data set is described as follows: Panel of methyltransferase inhibitors and ions, human kidney 100,000×g supernatant. The class given is biochemical. On the procedure:
Renal tissue was obtained either during autopsy or from patients undergoing clinically indicated nephrectomies. Hepatic tissue was obtained from patients who underwent clinically indicated partial hepatectomies for the removal of primary or metastatic hepatic tumors. All tissue was obtained under guidelines approved by the Mayo Clinic Institutional Review Board. Macroscopically normal tissue was stored at -80° C., conditions under which TPMT activity is stable (C. L. Szumlanski et al., Pharmacogenetics, 2, 148 (1992); J. A. Van Loon et al., Drug Met. Disposit., 18, 632 (1990)). Prior to enzyme purification, renal tissue was homogenized in 5 mM potassium phosphate buffer, pH 7.5, with a Polytron homogenizer, and a 100,000×g supernatant was prepared as described by L. C. Woodson et al., Biochem. Pharmacol., 32, 819 (1983). Amino acid sequence information was obtained with TPMT purified from human renal tissue--a tissue with a high specific activity for the enzyme.
(§1) TPMT activity in renal tissue was measured by the method of R. M. Weinshilboum et al., in Clin. Chim. Acta, 85, 323 (1978) as modified by L. C. Woodson et al., Biochem. Pharmacol., 32, 819 (1983) to assay the enzyme in human kidney preparations. […] Ado-Met as the methyl donor. Assay conditions for the measurement of TPMT in T84 human colon carcinoma cells and in COS-1 cells were identical with those used to measure the enzyme activity in human renal tissue. One unit of TPMT activity represented the formation of 1 nmol of 6-MMP per hr of incubation at 37° C.
(§2) Finally, the response of the TPMT expressed in COS-1 cells to a panel of methyltransferase inhibitors and ions was compared with that of TPMT activity in human kidney 100,000×g supernatant, partially purified human kidney Peak I TPMT and T84 cell TPMT (Table 3).

For the next data set, the target named is T2, human kidney TPMT Peak I (Homo sapiens, UniProt P51580).
T2 construct: Human renal tissue contains two isoforms of TPMT, Peak I and Peak II, that can be separated by DEAE ion exchange chromatography; from tissue; host or cells: human kidney, DEAE Peak I, gel filtration
T2 sequence (P51580 1-245): T1 sequence (P51580 1-245)
Kind of data set: Panel of methyltransferase inhibitors and ions, human kidney Peak I TPMT. The data set is classed as biochemical.
Source text: Human renal tissue contains two isoforms of TPMT, Peak I and Peak II, that can be separated by DEAE ion exchange chromatography as reported by J. A. Van Loon et al., Biochem. Genet., 20, 637 (1982). The two isoforms were separated by DEAE ion exchange chromatography, and the Peak I enzyme was then purified by gel filtration chromatography performed with Sephadex G-100 superfine as described by J. A. Van Loon et al., cited above. In some experiments, hydroxylapatite chromatography performed as described by J. A. Van Loon et al., in Biochem. Pharmacol., 44, 775 (1992) was added as a third purification step.
as §1, §2

Another data set has as its target T3, T84 cell TPMT (Homo sapiens, UniProt P51580).
T3 construct: Cytosol from T84 cells did contain TPMT enzymatic activity; host or cells: T84 human colon carcinoma cells
T3 sequence (P51580 1-245): T1 sequence (P51580 1-245)
Kind of data set: Panel of methyltransferase inhibitors and ions, T84 cell 100,000×g supernatant. The class given is biochemical. On the procedure: as §1
T84 human colon carcinoma cells (American Type Culture Collection, Rockville, Md.) were grown to confluence in an equal volume mixture of Dulbecco's modified Eagle's medium (DMEM) and Ham's F12 media with 5% fetal calf serum. The cells were then harvested, cell pellets were washed in phosphate buffered saline (PBS), and the pellets were homogenized for 30 sec in 1 ml of 5 mM potassium phosphate buffer, pH 7.5, with a Polytron homogenizer. Homogenates of the cells were centrifuged at 100,000×g for 1 hr at 4° C., and the supernatant was used to assay TPMT activity and to determine selected biochemical properties of the enzyme.
as §2

Data set [2] concerns the target T4, TPMT expressed in COS-1 cells transfected with T84 TPMT cDNA (Homo sapiens, UniProt P51580).
T4 construct: digested with SstI to excise the coding region, the 5'-untranslated region and a portion (ca. 600 nucleotides) of the 3'-untranslated region; expressed in transfected cells; host or cells: COS-1 (simian), vector P91023(B)
T4 sequence (P51580 1-245): T1 sequence (P51580 1-245)
Kind of data set: Panel of methyltransferase inhibitors and ions, COS-1 cells transfected with T84 TPMT cDNA. The class given is biochemical. On the procedure:
TPMT activity in renal tissue was measured by the method of R. M. Weinshilboum et al., in Clin. Chim. Acta, 85, 323 (1978) as modified by L. C. Woodson et al., Biochem. Pharmacol., 32, 819 (1983) to assay the enzyme in human kidney preparations. […] Assay conditions for the measurement of TPMT in T84 human colon carcinoma cells and in COS-1 cells were identical with those used to measure the enzyme activity in human renal tissue. One unit of TPMT activity represented the formation of 1 nmol of 6-MMP per hr of incubation at 37° C.
Simian COS-1 cells were then plated in 100-mm dishes at a density of 1.5-1.8×10^6 cells/dish in DMEM with 10% fetal calf serum, and were allowed to grow overnight. Three dishes of cells were used for each transfection. Purified "sense" plasmid vector (0.5 μg) was mixed with DEAE-dextran and DMEM, and the mixture was added to the cell culture dishes, following the procedures of J. H. McCutchan et al., J. Natl. Cancer Inst., 41, 351 (1988) and R. J. Kaufman et al., Mol. Cell. Biol., 9, 946 (1989). Control cells were treated with no DNA, with expression vector alone, or with constructs that contained the cDNA clone in an antisense orientation. After 1 hr, the DNA-DEAE-dextran solution was replaced for 2 min with DMEM that contained 10% dimethylsulfoxide, followed by incubation for 2 hr in 0.1 mM chloroquine in DMEM following the procedure of H. Luthman et al., Nucl. Acids Res., 11, 1295 (1983). Cells were then grown for 40-42 hr in DMEM with 10% fetal calf serum. The cells from each transfection were harvested and pooled, cell pellets were washed in 5 ml of PBS, and the cell pellets were homogenized for 30 sec in 2 ml of 5 mM potassium phosphate buffer, pH 7.5. Homogenates were centrifuged at 15,000×g for 15 min at 4° C., supernatants from that step were centrifuged at 100,000×g for 1 hr at 4° C., and 0.25 μl aliquots of 100,000×g supernatant preparations were then assayed for transient expression of TPMT enzymatic activity.

The target in data set [3] is T5, TPMT (Homo sapiens, UniProt P51580).
T5 construct: T84 cDNA transiently expressed in COS-1 cells, plus native human kidney 100,000×g supernatant, partially purified kidney Peak I and T84 cell enzyme
T5 sequence (P51580 1-245): T1 sequence (P51580 1-245)
The data set is described as follows: Inhibition of TPMT, all sources of enzyme (summary in words). The class given is biochemical.
Source text: as §2
As shown by the data in Table 3, the results were nearly identical for all sources of enzyme and each activity was inhibited by the TPMT reaction products, Ado-Hcy and 6-MMP. However, the enzyme was not affected by inhibitors of other methyltransferase enzymes.

For the next data set, the target named is T6, human kidney TPMT (Homo sapiens, UniProt P51580).
T6 construct: to assay the enzyme in human kidney preparations; host or cells: human kidney
T6 sequence (P51580 1-245): T1 sequence (P51580 1-245)
The following applies: read-out: Apparent Km value for Ado-Met; cited from earlier work.

The test system of data set [4] is histamine N-methyltransferase (HNMT). The following applies: cited from earlier work.
Data set [5] relates to catechol O-methyltransferase (COMT). The following applies: cited from earlier work.
Data set [6] relates to thiol methyltransferase (TMT). The following applies: cited from earlier work.
Data set [7] relates to patients with genetically low or undetectable RBC TPMT activity. The following applies: patients lacking or with low TPMT activity; cited from earlier work.
For data set [8], the system named is TPMT. The following applies: cited from earlier work.
[9] abbreviates: read-out: Activity Remaining, %.

As usually defined, the remaining activity is the signal under treatment as a percentage of the control signal. For `CSc1ncnc2nc[nH]c12` [6-MMP, 6-methylmercaptopurine], the remaining activity at 5000 µM was found to be 26% in data set [1] (human kidney 100,000×g supernatant, 5 mM); 30% on human kidney TPMT Peak I (human kidney TPMT Peak I, 5 mM); 27% on T84 cell TPMT (T84 cell 100,000×g supernatant, 5 mM); 29% in data set [2] (COS-1 cells transfected with T84 TPMT cDNA, 5 mM). Besides, the “effect on TPMT activity (in words)” value at TPMT [3] is recorded as “inhibited”.
For the compound `Nc1ncnc2c1ncn2[C@@H]1O[C@H](CSCC[C@H](N)C(=O)O)[C@@H](O)[C@H]1O` [Ado-Hcy, S-adenosyl-L-homocysteine], the remaining activity at 100 µM (in data set [1] (setting [9]); on human kidney TPMT Peak I (setting [9]); at T84 cell TPMT (setting [9]); in data set [2] (setting [9])) was 5% each time. In addition, on TPMT [3], the “effect on TPMT activity (in words)” value is “inhibited”.
The Km is the substrate concentration at which the rate is half of its maximum. With `C[S+](CC[C@H](N)C(=O)O)C[C@H]1O[C@@H](n2cnc3c(N)ncnc32)[C@H](O)[C@@H]1O` (stereo partly drawn) [Ado-Met, S-adenosyl-L-methionine], the Km on human kidney TPMT was 2.7 µM.
For the compound `CCN(CC)Cc1cc(Nc2ccnc3cc(Cl)ccc23)ccc1O` [Amodiaquine], the remaining activity at 1000 µM in data set [1] (human kidney 100,000×g supernatant, 1 mM, read-out: Activity Remaining, %) was determined as 97%; at human kidney TPMT Peak I (human kidney TPMT Peak I, 1 mM, read-out: Activity Remaining, %) it was 90%; on T84 cell TPMT (T84 cell 100,000×g supernatant, 1 mM, read-out: Activity Remaining, %) it was 96%; in data set [2] (COS-1 cells transfected with T84 TPMT cDNA, 1 mM, read-out: Activity Remaining, %), 95%. The “effect on TPMT activity (in words)” value at TPMT [3] is reported as “not affected”. Also, in data set [4], the “inhibition of histamine N-methyltransferase (in words)” value is “an inhibitor of histamine N-methyltransferase”.
In the case of `[Ca+2].[Cl-].[Cl-]` [CaCl2], the “Activity Remaining, %” value is recorded as 96% in data set [1] (human kidney 100,000×g supernatant, 1 mM); 97% on human kidney TPMT Peak I (human kidney TPMT Peak I, 1 mM); 95% at T84 cell TPMT (T84 cell 100,000×g supernatant, 1 mM); 96% in [2] (COS-1 cells transfected with T84 TPMT cDNA, 1 mM). Besides, the “effect on TPMT activity (in words)” value on TPMT [3] is given as “not affected”. Further, the “inhibition of catechol O-methyltransferase (in words)” value in data set [5] is listed as “an inhibitor of catechol O-methyltransferase”.
As to `CC(N)c1cccc(Cl)c1Cl` (stereo not drawn) [DCMB, 2,3-dichloro-α-methylbenzylamine], the remaining activity at 1000 µM in [1] (setting [9]) amounted to 95%; at human kidney TPMT Peak I (setting [9]), 95%; at T84 cell TPMT (setting [9]) it was 99%; in [2] (setting [9]), 95%. In addition, on TPMT [3], the “effect on TPMT activity (in words)” value is “not affected”. The “inhibition of thiol methyltransferase (in words)” value in data set [6] is “inhibitors of thiol methyltransferase”.
Turning to `CCCC(C(=O)OCCN(CC)CC)(c1ccccc1)c1ccccc1` [SKF-525A], the remaining activity at 500 µM worked out at 107% in data set [1] (human kidney 100,000×g supernatant, 0.5 mM); 98% on human kidney TPMT Peak I (human kidney TPMT Peak I, 0.5 mM); 102% at T84 cell TPMT (T84 cell 100,000×g supernatant, 0.5 mM); 101% in [2] (COS-1 cells transfected with T84 TPMT cDNA, 0.5 mM). Besides, the “effect on TPMT activity (in words)” value on TPMT [3] is recorded as “not affected”. Moreover, the “inhibition of thiol methyltransferase (in words)” value in data set [6] is given as “inhibitors of thiol methyltransferase”.
Consider `Cn1cnc([N+](=O)[O-])c1Sc1ncnc2nc[nH]c12` [azathioprine], for which, in data set [7], the “risk of myelosuppression (in words)” value is “even more at risk for the occurrence of severe myelosuppression; also recorded: greatly increased risk for the development of life-threatening thiopurine-induced myelosuppression”. Also, in the data set on TPMT [8], the “substrate for TPMT (in words)” value is on record as “substrates for TPMT”.
